Measured values from patent publication US4316904A, “Indolopyrone tetrazoles and carboxamidotetrazoles having antiallergic activity” (priority 1979, dated 1982).

Tested on: Reaginic Passive Cutaneous Anaphylaxis (PCA)
Assay: Rat Reaginic Passive Cutaneous Anaphylaxis (PCA)
Assay type: in vivo
Settings: for inhibition in vivo at 5 mg/kg / inhibition in vivo at 1 mg/kg: ip, read-out: percent inhibition (PCA test); for inhibition (PCA test), oral: orally
Protocol: The compounds of the invention are new chemical substances of value as pharmacological agents which prevent the allergic response in mammals by inhibition of the release of such allergic mediators, as histamine. The assay by which this utility was established is carried out as follows.
Rat Reaginic Passive Cutaneous Anaphylaxis (PCA)
The PCA test (D. J. Herzig, P. R. Schumann, E. J. Kusner, L. Robichaud, R. E. Giles, B. Dubnick, M. von Strandtmann, S. Klutchko, M. Cohen, and J. Shavel, Jr., "Immunopharmacology", M. E. Rosenthale and H. C. Mansmann, Eds., Spectrum Publications, Inc., New York, N.Y., 1975, pp. 103-124) involved immunization of rats with 1 mg of ovalbumin intramuscularly and approximately 10^10 B. pertussis organisms as pertussis vaccine, intraperitoneally. Fourteen days later, the rats were bled and the serum was prepared. Suitable dilutions of antiserum were injected intradermally at various sites on the back of rats 48 h before an intravenous injection of 1 mg of ovalbumin in 1 ml of physiological saline and 0.25% Evans Blue. Thirty minutes later the animals were killed in ether, the dorsal skin was reflected, and the mean orthogonal diameter of the wheal was measured. For oral or intraperitoneal dosing, the drugs were suspended in 1% gum tragacanth in physiological saline and given 10-15 min before intravenous antigen challenge. For intravenous dosing, the compounds were dissolved in the saline/ovalbumin/Evans Blue solution and given with the antigen. If necessary, the compounds were first dissolved in a slight molar excess of sodium bicarbonate and then diluted into the antigen solution. Groups of five animals were used for all dose levels and control groups.
To quantitate the PCA test, the mean diameter of each wheal spot was graphed as a function of the relative antiserum concentration. The line, fitted by the least-squares equation, was extrapolated to the value at "zero" antiserum concentration (base value). The following equation was then used to calculate the percent inhibition: [formula]
The statistical significance of the results was determined by Student's t test (p≤0.05). An inhibition of 15% was significant. The test results obtained for the compounds of the invention as well as for the corresponding acids (U.S. Pat. No. 4,028,383) are given as percent inhibition in the following table.

[1] = 5 mg/kg, 10-15 min before intravenous antigen challenge
[2] = 10-15 min before intravenous antigen challenge

Row | SMILES | inhibition in vivo at 5 mg/kg [1] [%] | inhibition in vivo at 1 mg/kg [2] [%] | other results
1 | Cn1c2c([N+](=O)[O-])cc([N+](=O)[O-])cc2c2oc(C(=O)O)cc(=O)c21 [6,8-di-NO2 /CH3 A, 4,5-Dihydro-5-methyl-6,8-dinitro-4-oxopyrano[3,2-b]indole-2-carboxylic acid, reference compound] | 0 |  | 
2 | Cn1c2c([N+](=O)[O-])cc([N+](=O)[O-])cc2c2oc(C(=O)Nc3nnn[nH]3)cc(=O)c21 [6,8-di-NO2 /CH3 C, 4,5-Dihydro-5-methyl-6,8-dinitro-4-oxo-N-1H-tetrazol-5-ylpyrano[3,2-b]indole-2-carboxamide] | 48 |  | 
3 | Cc1ccc2c(c1)c1oc(C(=O)O)cc(=O)c1n2C [8-CH3 /CH3 A, 4,5-dihydro-5,8-dimethyl-4-oxopyrano[3,2-b]indole-2-carboxylic acid, reference compound] |  | 18 | 
4 | Cc1ccc2c(c1)c1oc(C(=O)Nc3nnn[nH]3)cc(=O)c1n2C [8-CH3 /CH3 C, 4,5-Dihydro-5,8-dimethyl-4-oxo-N-1H-tetrazol-5-ylpyrano[3,2-b]indole-2-carboxamide] | 100 | 33 | 
5 | Cc1ccc2c(c1)c1oc(-c3nnn[nH]3)cc(=O)c1n2C [8-CH3 /CH3 T, 5,8-Dimethyl-2-(1H-tetrazol-5-yl)pyrano[3,2-b]indol-4(5H)-one] | 100 | 25 | inhibition (PCA test), oral (5 mg/kg): 56%
6 | Cn1c2ccc(Cl)cc2c2oc(C(=O)O)cc(=O)c21 [8-Cl/CH3 A, 8-chloro-4,5-dihydro-5-methyl-4-oxopyrano[3,2-b]indole-2-carboxylic acid, reference compound] | 23 |  | 
7 | Cn1c2ccc(Cl)cc2c2oc(C(=O)Nc3nnn[nH]3)cc(=O)c21 [8-Cl/CH3 C, 8-Chloro-4,5-dihydro-5-methyl-4-oxo-N-1H-tetrazol-5-ylpyrano[3,2-b]indole-2-carboxamide] | 100 | 38 | 
8 | Cn1c2ccc(Cl)cc2c2oc(-c3nnn[nH]3)cc(=O)c21 [8-Cl/CH3 T, 8-Chloro-5-methyl-2-(1H-tetrazol-5-yl)pyrano[3,2-b]indol-4(5H)-one] | 100 | 46 | inhibition (PCA test), oral (5 mg/kg): 33%
9 | Cn1c2ccc([N+](=O)[O-])cc2c2oc(C(=O)O)cc(=O)c21 [8-NO2 /CH3 A, 4,5-Dihydro-5-methyl-8-nitro-4-oxopyrano-[3,2-b]indole-2-carboxylic acid, reference compound] | 100 | 1 | 
10 | Cn1c2ccc([N+](=O)[O-])cc2c2oc(C(=O)Nc3nnn[nH]3)cc(=O)c21 [8-NO2 /CH3 C, 4,5-Dihydro-5-methyl-8-nitro-4-oxo-N-1H-tetrazol-5-ylpyrano[3,2-b]indole-2-carboxamide] | 100 | 42 | 
11 | O=C(O)c1cc(=O)c2c(o1)c1ccccc1n2-c1ccccc1 [H/.phi. A, reference compound] |  | 13 | 
12 | O=C(Nc1nn[nH]n1)c1cc(=O)c2c(o1)c1ccccc1n2-c1ccccc1 [H/.phi. C] |  |  | percent inhibition (PCA test) (i.p., 5 mg/kg, 10-15 min before intravenous antigen challenge): Inac.
13 | O=c1cc(-c2nnn[nH]2)oc2c3ccccc3n(-c3ccccc3)c12 [H/.phi. T, 5-Phenyl-2(1H-tetrazol-5-yl)pyrano[3,2-b]indol-4(5H)-one] | 100 | 61 | inhibition (PCA test), intravenous (intravenously, 0.1 mg/kg, given with the antigen): 28%; inhibition (PCA test), oral (2 mg/kg): 32%
14 | CCn1c2ccccc2c2oc(C(=O)O)cc(=O)c21 [H/C2 H5 A, 5-ethyl-4,5-dihydro-4-oxopyrano[3,2-b]indole-2-carboxylic acid, reference compound] |  | 0 | 
15 | CCn1c2ccccc2c2oc(C(=O)Nc3nnn[nH]3)cc(=O)c21 [H/C2 H5 C, 5-Ethyl-4,5-dihydro-4-oxo-N-1H-tetrazol-5-ylpyrano[3,2-b]indole-2-carboxamide] | 100 | 12 | 
16 | CCn1c2ccccc2c2oc(-c3nnn[nH]3)cc(=O)c21 [H/C2 H5 T, 5-Ethyl-2-(1H-tetrazol-5-yl)pyrano[3,2-b]indol-4(5H)-one] | 100 | 100 | inhibition (PCA test), oral (5 mg/kg): 70%
17 | Cn1c2ccccc2c2oc(C(=O)O)cc(=O)c21 [H/CH3 A, 4,5-dihydro-5-methyl-4-oxopyrano[3,2-b]indole-2-carboxylic acid, reference compound] | 100 | 30 | 
18 | Cn1c2ccccc2c2oc(C(=O)Nc3nnn[nH]3)cc(=O)c21 [H/CH3 C, 4,5-Dihydro-5-methyl-4-oxo-N-1H-tetrazol-5-ylpyrano[3,2-b]indole-2-carboxamide] | 100 | 28 | 
19 | Cn1c2ccccc2c2oc(-c3nnn[nH]3)cc(=O)c21 [H/CH3 T, 5-Methyl-2(1H-tetrazol-5-yl)pyrano[3,2-b]indol-4(5H)-one] | 100 | 87 | inhibition (PCA test), oral (2 mg/kg): 12%; inhibition (PCA test), oral (5 mg/kg): 39%
